± gives the expanded uncertainty stated by the source.
Experiment: mn = molality of the nth substance listed, in mol/kg
Conditions: Liquid

NC(N)=O [urea] + O
mass density [kg/m3]
Conditions	308.15 K	323.15 K	333.15 K
101 kPa, Vibrating tube method, m1 = 0.093	–	989.4 ± 0.09	984.53 ± 0.09
101 kPa, Vibrating tube method, m1 = 0.1063	–	989.59 ± 0.09	984.72 ± 0.09
101 kPa, Vibrating tube method, m1 = 0.141	–	990.1 ± 0.09	985.22 ± 0.09
101 kPa, Vibrating tube method, m1 = 0.152	–	990.26 ± 0.08	985.38 ± 0.09
101 kPa, Vibrating tube method, m1 = 0.1809	–	990.68 ± 0.09	985.79 ± 0.09
101 kPa, Vibrating tube method, m1 = 0.2423	–	991.57 ± 0.09	986.66 ± 0.09
101 kPa, Vibrating tube method, m1 = 0.4362	–	994.33 ± 0.08	989.38 ± 0.09
101 kPa, Vibrating tube method, m1 = 0.5644	–	996.13 ± 0.08	991.15 ± 0.09
101 kPa, Vibrating tube method, m1 = 1.008	–	1002.19 ± 0.08	997.11 ± 0.08
101 kPa, Vibrating tube method, m1 = 1.609	–	1010.03 ± 0.22	1004.81 ± 0.22
101 kPa, Vibrating tube method, m1 = 2.505	–	1020.95 ± 0.21	1015.53 ± 0.21
101 kPa, Vibrating tube method, m1 = 3.376	–	1030.77 ± 0.2	1025.17 ± 0.2
101 kPa, Vibrating tube method, m1 = 4.33	–	1040.72 ± 0.19	1034.98 ± 0.19
101 kPa, Vibrating tube method, m1 = 5.39	–	1050.87 ± 0.87	1044.98 ± 0.86
101 kPa, Vibrating tube method, m1 = 8	–	1072.6 ± 0.79	1066.38 ± 0.78
101 kPa, Vibrating tube method, m1 = 9.9	–	1086.08 ± 0.65	1079.64 ± 0.64
101 kPa, Vibrating tube method, m1 = 12.8	–	1103.59 ± 0.61	1096.9 ± 0.61
10000 kPa, Constant-volume piezometry, m1 = 0.1809	–	994.94 ± 0.21	–
10000 kPa, Constant-volume piezometry, m1 = 0.4362	–	998.57 ± 0.21	–
10000 kPa, Constant-volume piezometry, m1 = 0.5644	–	1000.36 ± 0.21	–
10000 kPa, Constant-volume piezometry, m1 = 1.609	–	1014.19 ± 0.27	–
10000 kPa, Constant-volume piezometry, m1 = 2.505	–	1025.05 ± 0.28	–
10000 kPa, Constant-volume piezometry, m1 = 3.376	–	1034.82 ± 0.28	–
10000 kPa, Constant-volume piezometry, m1 = 5.39	–	1054.83 ± 1.1	–
10000 kPa, Constant-volume piezometry, m1 = 8	–	1076.49 ± 1.1	–
10000 kPa, Constant-volume piezometry, m1 = 10.99	–	1096.87 ± 1.1	–
10000 kPa, Constant-volume piezometry, m1 = 12.8	–	1107.38 ± 1.1	–
25000 kPa, Constant-volume piezometry, m1 = 0.1809	–	1001.22 ± 0.3	–
25000 kPa, Constant-volume piezometry, m1 = 0.4362	–	1004.83 ± 0.3	–
25000 kPa, Constant-volume piezometry, m1 = 0.5644	–	1006.62 ± 0.31	–
25000 kPa, Constant-volume piezometry, m1 = 1.609	–	1020.35 ± 0.35	–
25000 kPa, Constant-volume piezometry, m1 = 2.505	–	1031.14 ± 0.36	–
25000 kPa, Constant-volume piezometry, m1 = 3.376	–	1040.83 ± 0.36	–
25000 kPa, Constant-volume piezometry, m1 = 5.39	–	1060.7 ± 1.1	–
25000 kPa, Constant-volume piezometry, m1 = 8	–	1082.18 ± 1.1	–
25000 kPa, Constant-volume piezometry, m1 = 10.99	–	1102.45 ± 1.2	–
25000 kPa, Constant-volume piezometry, m1 = 12.8	–	1112.95 ± 1.2	–
50000 kPa, Constant-volume piezometry, m1 = 0.1809	–	1011.26 ± 0.5	–
50000 kPa, Constant-volume piezometry, m1 = 0.4362	1021.35 ± 0.49	1014.82 ± 0.5	–
50000 kPa, Constant-volume piezometry, m1 = 0.5644	1023.19 ± 0.49	1016.57 ± 0.5	–
50000 kPa, Constant-volume piezometry, m1 = 1.609	1037.21 ± 0.52	1030.14 ± 0.54	–
50000 kPa, Constant-volume piezometry, m1 = 2.505	1048.14 ± 0.53	1040.78 ± 0.54	–
50000 kPa, Constant-volume piezometry, m1 = 3.376	1057.95 ± 0.54	1050.36 ± 0.55	–
50000 kPa, Constant-volume piezometry, m1 = 5.39	1078.02 ± 1.2	1069.99 ± 1.2	–
50000 kPa, Constant-volume piezometry, m1 = 8	1099.83 ± 1.2	1091.23 ± 1.2	–
50000 kPa, Constant-volume piezometry, m1 = 10.99	1120.31 ± 1.2	1111.32 ± 1.2	–
50000 kPa, Constant-volume piezometry, m1 = 12.8	1130.92 ± 1.3	1121.73 ± 1.3	–
75000 kPa, Constant-volume piezometry, m1 = 0.1809	1027.35 ± 0.69	1020.8 ± 0.7	–
75000 kPa, Constant-volume piezometry, m1 = 0.4362	1030.99 ± 0.69	1024.31 ± 0.7	–
75000 kPa, Constant-volume piezometry, m1 = 0.5644	1032.8 ± 0.69	1026.04 ± 0.71	–
75000 kPa, Constant-volume piezometry, m1 = 1.609	1046.61 ± 0.72	1039.38 ± 0.74	–
75000 kPa, Constant-volume piezometry, m1 = 2.505	1057.37 ± 0.73	1049.87 ± 0.74	–
75000 kPa, Constant-volume piezometry, m1 = 3.376	1067.04 ± 0.74	1059.32 ± 0.75	–
75000 kPa, Constant-volume piezometry, m1 = 5.39	1086.84 ± 1.3	1078.73 ± 1.3	–
75000 kPa, Constant-volume piezometry, m1 = 8	1108.4 ± 1.3	1099.84 ± 1.3	–
75000 kPa, Constant-volume piezometry, m1 = 10.99	1128.64 ± 1.4	1119.74 ± 1.4	–
75000 kPa, Constant-volume piezometry, m1 = 12.8	1139.16 ± 1.4	1130.01 ± 1.4	–
100000 kPa, Constant-volume piezometry, m1 = 0.1809	1036.61 ± 0.9	1029.92 ± 0.91	–
100000 kPa, Constant-volume piezometry, m1 = 0.4362	1040.2 ± 0.9	1033.37 ± 0.91	–
100000 kPa, Constant-volume piezometry, m1 = 0.5644	1041.98 ± 0.9	1035.08 ± 0.91	–
100000 kPa, Constant-volume piezometry, m1 = 1.609	1055.64 ± 0.93	1048.25 ± 0.94	–
100000 kPa, Constant-volume piezometry, m1 = 2.505	1066.32 ± 0.94	1058.62 ± 0.95	–
100000 kPa, Constant-volume piezometry, m1 = 3.376	1075.91 ± 0.95	1067.97 ± 0.96	–
100000 kPa, Constant-volume piezometry, m1 = 5.39	1095.48 ± 1.4	1087.2 ± 1.4	–
100000 kPa, Constant-volume piezometry, m1 = 8	1116.79 ± 1.5	1108.07 ± 1.5	–
100000 kPa, Constant-volume piezometry, m1 = 10.99	1136.92 ± 1.5	1127.82 ± 1.5	–
100000 kPa, Constant-volume piezometry, m1 = 12.8	1147.3 ± 1.5	1138.03 ± 1.5	–

Source: the NIST ThermoML archive (doi:10.1016/j.jct.2018.01.024)
